Measured values from patent publication US6391882B1, “4,5,6 and 7-indole and indoline derivatitives, their preparation and use” (H. Lundbeck A/S, priority 1998, dated 2002).
Where two headings read alike, the source gives them in different places.

Columns and labels:
[1] = target: T1, Serotonin reuptake (whole rat brain synaptosomes) (Rattus norvegicus, UniProt P31652); assay: Inhibition of 3H-5-HT uptake into rat brain synaptosomes; assay type: biochemical
T1 construct: from tissue; host or cells: whole rat brain synaptosomes
Method: Inhibition of ^3H-5-HT Uptake Into Rat Brain Synaptosomes
Using this method the ability of drugs to inhibit the accumulation of ^3H-5-HT into whole rat brain synaptosomes is determined in vitro.

[2] = target: T2, cloned human 5-HT1A receptors (Homo sapiens, UniProt P08908); assay: Inhibition of 3H-5-CT binding to human 5-HT1A receptors
T2 construct: expressed in transfected cells; host or cells: HeLa cells (HA7)
T2 sequence (P08908 1-422): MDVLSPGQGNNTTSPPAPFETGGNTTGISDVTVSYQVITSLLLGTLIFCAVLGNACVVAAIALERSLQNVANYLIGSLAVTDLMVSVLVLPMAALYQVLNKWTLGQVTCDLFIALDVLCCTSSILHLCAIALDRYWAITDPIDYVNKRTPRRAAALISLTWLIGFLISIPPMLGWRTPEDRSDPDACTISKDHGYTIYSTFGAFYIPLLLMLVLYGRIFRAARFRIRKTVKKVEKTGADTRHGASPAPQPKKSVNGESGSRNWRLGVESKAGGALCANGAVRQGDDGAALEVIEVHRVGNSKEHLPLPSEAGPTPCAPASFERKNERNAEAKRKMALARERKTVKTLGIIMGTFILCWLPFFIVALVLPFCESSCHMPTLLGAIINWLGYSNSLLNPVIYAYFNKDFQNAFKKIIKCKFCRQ
Method: The affinity of the compounds of the invention to 5-HT1A receptors was determined by measuring the inhibition of binding of a radioactive ligand at 5-HT1A receptors as described in the following test:
Inhibition of ^3H-5-CT Binding to Human 5HT1A Receptors
By this method the inhibition by drugs of the binding of the 5-HT1A agonist ^3H-5-carboxamido tryptamine (^3H-5-CT) to cloned human 5-HT1A receptors stably expressed in transfected HeLa cells (HA7) (Fargin, A. et al, J. Biol. Chem., 1989, 264, 14848) is determined in vitro. The assay was performed as a modification of the method described by Harrington, M. A. et al, J. Pharmacol. Exp. Ther., 1994, 268, 1098. Human 5-HT1A receptors (40 μg of cell homogenate) were incubated for 15 minutes at 37° C. in 50 mM Tris buffer at pH 7.7 in the presence of ^3H-5-CT. Non-specific binding was determined by including 10 μM of metergoline. The reaction was terminated by rapid filtration through Unifilter GF/B filters on a Tomtec Cell Harvester. Filters were counted in a Packard Top Counter.

[3] = 3H-5-HT accumulation into whole rat brain synaptosomes, in vitro, read-out: Inhibition of Serotonin reuptake IC50
[4] = cloned human 5-HT1A receptors in transfected HeLa cells (HA7), 15 minutes at 37° C., pH 7.7

T1 sequence (P31652 whole entry): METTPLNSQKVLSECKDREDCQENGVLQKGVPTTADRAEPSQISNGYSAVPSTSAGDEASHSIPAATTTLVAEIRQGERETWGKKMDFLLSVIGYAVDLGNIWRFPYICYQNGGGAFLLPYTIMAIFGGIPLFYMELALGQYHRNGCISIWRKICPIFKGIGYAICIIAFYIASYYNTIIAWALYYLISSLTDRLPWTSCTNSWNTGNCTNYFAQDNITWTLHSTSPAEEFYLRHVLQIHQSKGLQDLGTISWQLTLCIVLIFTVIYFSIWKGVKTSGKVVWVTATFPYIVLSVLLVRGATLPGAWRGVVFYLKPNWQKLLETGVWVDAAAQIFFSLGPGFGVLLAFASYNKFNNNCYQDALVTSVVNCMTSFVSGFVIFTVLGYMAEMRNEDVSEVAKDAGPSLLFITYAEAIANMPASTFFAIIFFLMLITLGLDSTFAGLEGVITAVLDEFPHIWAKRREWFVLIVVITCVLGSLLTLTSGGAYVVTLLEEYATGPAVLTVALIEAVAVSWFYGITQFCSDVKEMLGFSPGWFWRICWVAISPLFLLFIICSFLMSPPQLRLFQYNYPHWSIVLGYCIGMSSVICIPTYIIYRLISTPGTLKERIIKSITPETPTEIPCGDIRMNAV

| IC50 [1, 3] [nM] | Structure (SMILES) | IC50 [2, 4] [nM] | IC50 [1] [nM] | IC50 [2] [nM] |
| --- | --- | --- | --- | --- |
| 6.8 | Fc1ccc2occ(CCCN3CCN(c4cccc5[nH]ccc45)CC3)c2c1 [Compound 1h, 1-(3-(5-Fluoro-3-benzofuranyl)-1-propyl)-4-(1H-indol-4-yl)piperazine] | 11 | – | – |
| – | N#Cc1cccc2c(CCN3CCN(c4cccc5[nH]ccc45)CC3)c[nH]c12 [Compound 1l, 1-(2-(7-Cyano-1H-indol-3-yl)ethyl)-4-(1H-indol-4-yl)piperazine] | 2.5 | – | – |
| – | c1ccc2c(CCN3CCN(c4cccc5[nH]ccc45)CC3)c[nH]c2c1 [Compound 1e, 1-(2-(1H-indol-3-yl)ethyl)-4-(1H-indol-4-yl)piperazine] | 6.9 | 4.4 | – |
| 360 | Fc1ccc2c(CCCN3CCN(c4cccc5[nH]ccc45)CC3)noc2c1 [Compound 4a, 1-(3-(6-Fluoro-1,2-benzisoxazol-3-yl)-1-propyl)-4-(1H-indol-4-yl)piperazine] | 9.8 | – | – |
| – | Clc1ccc2[nH]cc(CCN3CCN(c4ccc5[nH]ccc5c4)CC3)c2c1 [Compound 2u, 1-(2-(5-Chloro-1H-indol-3-yl)ethyl)-4-(1H-indol-5-yl)piperazine] | 310 | 20 | – |
| – | Clc1ccc2c(CCN3CCN(c4cccc5[nH]ccc45)CC3)c[nH]c2c1 [Compound 2a, 1-(2-(6-Chloro-1H-indol-3-yl)ethyl)-4-(1H-indol-4-yl)piperazine] | 3.4 | 21 | – |
| – | Fc1ccc2occ(CCCN3CC=C(c4cccc5[nH]ccc45)CC3)c2c1 [Compound 4s, 1-(3-(5-Fluoro-3-benzofuranyl)-1-propyl)-4-(1H-indol-4-yl)-1,2,3,6-tetrahydropyridine] | 16 | 24 | – |
| 290 | c1cc(N2CCN(Cc3coc4ccccc34)CC2)c2cc[nH]c2c1 [Compound 1b, 1-(3-Benzofuranylmethyl)-4-(1H-indol-4-yl)piperazine] | 210 | – | – |
| – | N#Cc1c[nH]c2cccc(N3CCN(CCc4c[nH]c5cccc(Cl)c45)CC3)c12 [Compound 4x, 1-(2-(4-Chloro-1H-indol-3-yl)ethyl)-4-(3-cyano-1H-indol-4-yl)piperazine] | 5.4 | – | – |
| – | Clc1cccc2c(CCN3CCN(c4cccc5[nH]ccc45)CC3)coc12 [Compound 4v, 1-(2-(7-Chloro-3-benzofuranyl)ethyl)-4-(1H-indol-4-yl)piperazine] | 4.3 | 4.4 | – |
| – | N#Cc1c[nH]c2cccc(N3CCN(CCc4c[nH]c5ccccc45)CC3)c12 [Compound 4m, 1-(3-Cyano-1H-indol-4-yl)-4-(2-(1H-indol-3-yl)ethyl)piperazine] | 3.2 | 3 | – |
| – | N#Cc1c[nH]c2cccc(N3CCN(CCc4c[nH]c5cc(Cl)ccc45)CC3)c12 [Compound 4o, 1-(2-(6-Chloro-1H-indol-3-yl)ethyl)-4-(3-cyano-1H-indol-4-yl)piperazine] | 2.9 | 19 | – |
| – | COC(=O)c1cc(N2CCN(CCc3c[nH]c4ccccc34)CC2)c2cc[nH]c2c1 [Compound 4f, 1-(2-(1H-indol-3-yl)ethyl)-4-(6-methoxycarbonyl-1H-indol-4-yl)piperazine] | 1200 | 14 | – |
| – | Cc1oc2c(F)c(F)c(F)c(F)c2c1CCN1CCN(c2cccc3[nH]ccc23)CC1 [Compound 1i, 1-(2-(2-Methyl-4,5,6,7-tetrafluoro-3-benzofuranyl)ethyl)-4-(1H-indol-4-yl)piperaziine] | 3.4 | – | – |
| – | Cc1ccc2occ(CCN3CCN(c4cccc5[nH]ccc45)CC3)c2c1 [Compound 4q, 1-(1H-Indol-4-yl)-4-(2-(5-methyl-3-benzofuranyl)ethyl)piperazine] | 21 | 34 | – |
| – | Brc1ccc2[nH]cc(CCN3CCN(c4ccc5[nH]ccc5c4)CC3)c2c1 [Compound 2t, 1-(2-(5-Bromo-1H-indol-3-yl)ethyl)-4-(1H-indol-5-yl)piperazine] | 230 | 39 | – |
| – | Clc1cccc2[nH]cc(CCN3CCN(c4cccc5[nH]ccc45)CC3)c12 [Compound 2b, 1-(2-(4-Chloro-1H-indol-3-yl)ethyl)-4-(1H-indol-4-yl)piperazine] | 11 | 6.9 | – |

| IC50 [1, 3] [nM] | Structure (SMILES) | IC50 [2, 4] [nM] | IC50 [1] [nM] | IC50 [2] [nM] |
| --- | --- | --- | --- | --- |
| 65 | N#Cc1c[nH]c2cccc(N3CCN(CCc4coc5ccc(F)cc45)CC3)c12 [Compound 4n, 1-(3-Cyano-1H-indol-4-yl)-4-(2-(5-fluoro-3-benzofuranyl)ethyl)piperazine] | 5.7 | – | – |
| 12 | c1ccc2c(CCCCN3CCN(c4cccc5[nH]ccc45)CC3)c[nH]c2c1 [Compound 1g, 1-(4-(1H-indol-3-yl)-1-butyl)-4-(1H-indol-4yl)piperazine] | 13 | – | – |
| 71 | COC(=O)c1cc(N2CCN(CCc3coc4ccc(F)cc34)CC2)c2cc[nH]c2c1 [Compound 4h, 1-(2-(5-Fluoro-3-benzofuranyl)ethyl)-4-(6-methoxycarbonyl-1H-indol-4-yl)piperazine] | 3100 | – | – |
| – | c1cc(N2CCN(CCc3coc4ccccc34)CC2)c2cc[nH]c2c1 [Compound 1a, 1-(2-(3-Benzofuranyl)ethyl)-4-(1H-indol-4-yl)piperazine] | 10 | 31 | – |
| – | Clc1ccc2occ(CCN3CCN(c4cccc5[nH]ccc45)CC3)c2c1 [Compound 4t, 1-(2-(5-Chloro-3-benzofuranyl)ethyl)-4-(1H-indol-4-yl)piperazine] | 9.4 | 99 | – |
| – | Cc1cccc2occ(CCN3CCN(c4cccc5[nH]ccc45)CC3)c12 [Compound 4r, 1-(1H-Indol-4-yl)-4-(2-(4-methyl-3-benzofuranyl)ethyl)piperazine] | 10 | 12 | – |
| – | Brc1cccc2c(CCN3CCN(c4cccc5[nH]ccc45)CC3)c[nH]c12 [Compound 2i, 1-(2-(7-Bromo-1H-indol-3-yl)ethyl)-4-(1H-indol-4-yl)piperazine] | 5.4 | 5.9 | – |
| – | OCc1cc(N2CCN(CCc3c[nH]c4ccc(F)cc34)CC2)c2cc[nH]c2c1 [Compound 3a, 1-(2-(5-Fluoro-1H-indol-3-yl)ethyl)-4-(6-hydroxymethyl-1H-indol-4-yl)piperazine] | 910 | 17 | – |
| – | Fc1ccc2[nH]cc(CCN3CC=C(c4cccc5[nH]ccc45)CC3)c2c1 [Compound 2h, 1-(2-(5-Fluoro-1H-indol-3-yl)ethyl)-4-(1H-indol-4-yl)-1,2,3,6-tetrahydropyridine] | 11 | 2.5 | – |
| 31 | Fc1ccc2occ(CCCCN3CCN(c4cccc5[nH]ccc45)CC3)c2c1 [Compound 1d, 1-(4-(5-Fluoro-3-benzofuranyl)-1-butyl)-4-(1H-indol-4-yl)piperazine] | 2.5 | – | – |
| – | Fc1ccc2[nH]cc(CCN3CCN(c4cccc5[nH]ccc45)CC3)c2c1 [Compound 2c, 1-(2-(5-Fluoro-1H-indol-3-yl)ethyl)-4-(1H-indol-4-yl)piperazine] | 27 | 2.3 | – |
| – | Clc1ccc2c(CCN3CCC(c4cccc5[nH]ccc45)CC3)c[nH]c2c1 [Compound 5a] | 14 | 19 | – |
| – | COC(=O)c1cc(N2CCN(CCc3c[nH]c4cc(Cl)ccc34)CC2)c2cc[nH]c2c1 [Compound 4g, 1-(2-(6-Chloro-1H-indol-3-yl)ethyl)-4-(6-methoxycarbonyl-1-H-indol-4-yl)piperazine] | 350 | 23 | – |
| 8.2 | c1ccc2c(CCCN3CCN(c4cccc5[nH]ccc45)CC3)c[nH]c2c1 [Compound 1f, 1-(3-(1H-indol-3-yl)-1-propyl)-4-(1H-indol-4-yl)piperazine] | 9.8 | – | – |
| 950 | Fc1ccc2occ(CN3CCN(c4cccc5[nH]ccc45)CC3)c2c1 [Compound 4l, 1-(5-Fluoro-3-benzofuranylmethyl)-4-(1H-indol-4-4-yl)piperazine] | 330 | – | – |
| – | Fc1ccc2occ(CCN3CCN(c4cccc5[nH]ccc45)CC3)c2c1 [Compound 1c, 1-(2-(5-Fluoro-3-benzofuranyl)ethyl)-4-(1H-indol-4-yl)piperazine] | 12 | 57 | – |

| Structure (SMILES) | IC50 [1, 3] [nM] | IC50 [2, 4] [nM] | IC50 [1] [nM] | IC50 [2] [nM] |
| --- | --- | --- | --- | --- |
| c1cc(N2CCN(CCc3n[nH]c4ccccc34)CC2)c2cc[nH]c2c1 [Compound 1j, 1-(2-(3-Indazolyl)ethyl)-4-(1H-indol-4-yl)piperazine] | 360 | – | – | 22 |
| Clc1ccc2c(CCN3CCN(c4cccc5[nH]ccc45)CC3)n[nH]c2c1 [Compound 1k, 1-(2-(6-Chloro-3-indazolyl)ethyl)-4-(1H-indol-4-yl)piperazine] | 150 | – | – | 22 |
